Assay results: patent US8044198B2, “Sirtuin modulating compounds” (Sirtris Pharmaceuticals, Inc., priority 2005, dated 2011)
Read-outs that look alike come from different tables or passages of the source.

Target: T1, SIRT1 (Homo sapiens, UniProt Q96EB6)
T1 sequence (Q96EB6 1-747): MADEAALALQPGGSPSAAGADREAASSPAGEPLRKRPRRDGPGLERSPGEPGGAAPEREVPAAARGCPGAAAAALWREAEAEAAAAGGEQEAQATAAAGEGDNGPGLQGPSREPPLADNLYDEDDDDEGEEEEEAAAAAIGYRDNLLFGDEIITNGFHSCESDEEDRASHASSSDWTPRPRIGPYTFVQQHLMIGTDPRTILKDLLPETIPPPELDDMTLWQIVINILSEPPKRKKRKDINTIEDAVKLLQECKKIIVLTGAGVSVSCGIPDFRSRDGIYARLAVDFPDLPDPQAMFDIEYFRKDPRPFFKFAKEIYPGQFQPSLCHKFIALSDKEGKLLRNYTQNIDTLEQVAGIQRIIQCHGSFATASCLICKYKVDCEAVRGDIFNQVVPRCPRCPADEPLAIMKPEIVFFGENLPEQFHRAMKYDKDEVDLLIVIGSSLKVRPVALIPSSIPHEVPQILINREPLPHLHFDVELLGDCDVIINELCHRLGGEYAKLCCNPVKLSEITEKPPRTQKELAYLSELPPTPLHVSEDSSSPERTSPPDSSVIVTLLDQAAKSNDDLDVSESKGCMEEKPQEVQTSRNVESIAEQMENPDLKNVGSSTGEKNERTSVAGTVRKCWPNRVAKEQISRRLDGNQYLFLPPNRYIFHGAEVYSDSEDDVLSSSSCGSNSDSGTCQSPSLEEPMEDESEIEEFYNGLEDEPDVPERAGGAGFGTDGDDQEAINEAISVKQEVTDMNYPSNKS
Experiment: SIRT1 mass spectrometry (MS) based deacetylation assay; as to FOLD ACT. MS: test concentration or dose not given here
Format: biochemical

[1] = Sirt1 activators, fold activation as determined by MS
[2] = Sirt1 activators, mass spectrometry assay, read-out: ED50 MS ASSAY
[3] = SIRT1 activation, mass spectrometry assay, read-out: ED50 MS ASSAY
[4] = fold activation of SIRT1 as determined by MS
[5] = fold activation of SIRT1, mass spectrometry assay
[6] = SIRT1 fold activation as determined by MS

Row | Structure (SMILES) | EC50 [3] [µM] | FOLD ACT. MS [4] | FOLD ACT. MS [5] | also measured
1 | Cc1cc(C(=O)Nc2ccccc2-c2cn3c(CN4CCNCC4)csc3n2)n(C)n1 [Compound 678] |  |  |  | FOLD ACT. MS [1]: B (B (Fold Activation <250%)); EC50 [2]: 5 to 50 µM
2 | Cc1nn(-c2ccccc2)nc1C(=O)Nc1ccccc1-c1nc2ccncc2s1 [Compound 390] | 5 to 50 |  | B (B (Fold Activation <250%)) | 
3 | O=C(Cc1ccccc1)Nc1ccccc1-c1cn2c(CN3CCNCC3)csc2n1 [Compound 445] | 5 to 50 |  | B (B (Fold Activation <250%)) | 
4 | CC(CC(=O)Nc1cccc(-c2nc3ccncc3s2)c1)Oc1ccccc1 (stereo not shown) [Compound 396] | 5 to 50 |  | B (B (Fold Activation <250%)) | 
5 | O=C(Nc1ccccc1-c1nc2cccnc2[nH]1)c1ccc(N2CCCCC2)cc1 [Compound 527] |  |  |  | FOLD ACT. MS [1]: B (B (Fold Activation <250%)); EC50 [2]: < 5 µM
6 | COc1ccc(C(=O)Nc2ccccc2-c2cn3c(CN(C)C)csc3n2)cc1OC [Compound 205] | 5 to 50 | A (A (Fold activation >250%)) |  | 
7 | O=C(Nc1ccccc1-c1cn2c(CN3CCC(F)CC3)csc2n1)c1cnc2ccccc2n1 [Compound 714] | 5 to 50 |  |  | FOLD ACT. MS [6]: B (B (Fold Activation <250%))
8 | COc1ccc(C(=O)Nc2ccccc2-c2cn3c(CN4CCNCC4)csc3n2)cc1OC [Compound 207] | 5 to 50 | A (A (Fold activation >250%)) |  | 
9 | COc1cc(C(=O)Nc2ccccc2-c2cn3c(CN4CCNCC4)csc3n2)cc(OC)c1OC [Compound 208] | 5 to 50 | A (A (Fold activation >250%)) |  | 
10 | COc1cc(C(=O)N(C)c2ccccc2-c2nc3ncccc3o2)cc(OC)c1OC [Compound 292, 3,4,5-Trimethoxy-N-methyl-N-(2-oxazolo[4,5-b]pyridin-2-yl-phenyl)-benzamide] | > 150 |  |  | 
11 | O=C(Nc1ccccc1-c1cn2c(CN3CCNCC3)csc2n1)c1ccccc1 [Compound 328] | 51 to 100 |  | A (A (Fold activation >250%)) | 
12 | FC(F)(F)c1cccc(Cl)c1NC(=S)Nc1cc(-c2nc3ncccc3o2)ccn1 [Compound 667] |  |  |  | EC50 [2]: 5 to 50 µM
13 | c1cc(Nc2nc3ccccc3s2)cc(-c2nc3ncccc3o2)c1 [Compound 95] | < 5 | B (B (Fold Activation <250%)) |  | 
14 | Cc1csc2nc(-c3ccccc3NC(=O)c3cnc4ccccc4n3)cn12 [Compound 707] | < 5 |  |  | FOLD ACT. MS [6]: A (A (Fold activation >250%))
15 | O=C(Nc1ccccc1-c1nc2cc(CN3CCNCC3)cnc2s1)c1ccc2ncsc2c1 [Compound 730] | 5 to 50 |  |  | FOLD ACT. MS [6]: A (A (Fold activation >250%))
16 | COc1cc(C(=O)Nc2ccccc2-c2nc3ncccc3o2)ccc1CN1CCOCC1 [Compound 631] |  |  |  | FOLD ACT. MS [1]: B (B (Fold Activation <250%)); EC50 [2]: < 5 µM
17 | O=C(Nc1ccccc1-c1cn2c(CN3CCNCC3)csc2n1)c1cccc(-c2ccccc2)c1 [Compound 710] | < 5 |  |  | FOLD ACT. MS [6]: A (A (Fold activation >250%))
18 | COc1cc(C(=O)Nc2ccccc2-c2nc3ccncc3s2)ccc1CN1CCCC1 [Compound 436] | 5 to 50 |  | A (A (Fold activation >250%)) | 

Row | Structure (SMILES) | EC50 [3] [µM] | FOLD ACT. MS [4] | FOLD ACT. MS [5] | also measured
19 | O=C(Nc1ccccc1-c1nc2cc(CN3CCNCC3)cnc2s1)c1ccc(F)c(F)c1 [Compound 594] |  |  |  | FOLD ACT. MS [1]: B (B (Fold Activation <250%)); EC50 [2]: 5 to 50 µM
20 | COc1ccc(C(=O)Nc2ccccc2-c2nc3ccccn3c2CN(C)C)cc1OC [Compound 350] | 51 to 100 |  | B (B (Fold Activation <250%)) | 
21 | CN(C)c1cccc(C(=O)Nc2ccccc2-c2cn3ccccc3n2)c1 [Compound 268] | < 5 |  | B (B (Fold Activation <250%)) | 
22 | O=C(Nc1cccc(-c2nc3ccncc3s2)c1)c1cccnc1Cl [Compound 222] | 5 to 50 |  | B (B (Fold Activation <250%)) | 
23 | CC(=O)Nc1ccc(S(=O)(=O)Nc2cccc(-c3nc4ccncc4s3)c2)cc1 [Compound 288] | 5 to 50 |  | B (B (Fold Activation <250%)) | 
24 | COc1ccc(C(=O)Nc2ccccc2-c2nc3cnccc3s2)c(OC)c1OC [Compound 411] | 5 to 50 |  | B (B (Fold Activation <250%)) | 
25 | COC(=O)c1cc(NC(=O)c2cc(OC)c(OC)c(OC)c2)cc(-c2nc3ccncc3s2)c1 [Compound 133, methyl 3-(thiazolo[5,4-c]pyridin-2-yl)-5-(3,4,5-trimethoxybenzamido)benzoate] | < 5 | B (B (Fold Activation <250%)) |  | 
26 | CSc1ccc(C(=O)Nc2ccccc2-c2cn3c(CN4CCNCC4)csc3n2)cc1 [Compound 444] | 5 to 50 |  | A (A (Fold activation >250%)) | 
27 | O=C(Nc1ccccc1-c1cn2c(CN3CCCCC3)csc2n1)c1cnc2ccccc2n1 [Compound 618] |  |  |  | FOLD ACT. MS [1]: B (B (Fold Activation <250%)); EC50 [2]: < 5 µM
28 | COc1cc(C)ccc1C(=O)Nc1ccccc1-c1nc2cccnc2[nH]1 [Compound 523] |  |  |  | FOLD ACT. MS [1]: B (B (Fold Activation <250%)); EC50 [2]: 5 to 50 µM
29 | Cc1cc(C(=O)Nc2cccc(-c3nc4ccncc4s3)c2)n(C(C)(C)C)n1 [Compound 228] | 5 to 50 |  | A (A (Fold activation >250%)) | 
30 | COc1ccc(C(=O)Nc2ccc(-c3nc4cnccc4s3)s2)c(OC)c1 [Compound 515] |  |  |  | FOLD ACT. MS [1]: B (B (Fold Activation <250%)); EC50 [2]: < 5 µM
31 | NC1CCN(Cc2csc3nc(-c4ccccc4NC(=O)c4cnc5ccccc5n4)cn23)CC1 [Compound 716] | < 5 |  |  | FOLD ACT. MS [6]: A (A (Fold activation >250%))
32 | COc1ccc(C(=O)Nc2cc(-c3nc4ccccc4o3)ccn2)cc1OC [Compound 77] |  | B (B (Fold Activation <250%)) |  | EC50: 5 to 50 µM
33 | O=C(Nc1ccccc1-c1nc2ncccc2o1)c1ccc(Oc2ncccn2)cc1 [Compound 668] |  |  |  | FOLD ACT. MS [1]: B (B (Fold Activation <250%)); EC50 [2]: 5 to 50 µM
34 | COc1cc(C(=O)Nc2ccccc2-c2cn3ccccc3n2)ccc1CN1CCOCC1 [Compound 541] |  |  |  | FOLD ACT. MS [1]: B (B (Fold Activation <250%)); EC50 [2]: 5 to 50 µM
35 | COc1ccc(OC(=O)Nc2ccccc2-c2nc3ncccc3o2)cc1OC [Compound 670] |  |  |  | EC50: 5 to 50 µM; FOLD ACT. MS [1]: B (B (Fold Activation <250%))

Continued, in another order:

Row | EC50 [3] [µM] | FOLD ACT. MS [4] | FOLD ACT. MS [5] | Structure (SMILES) | also measured
36 | 5 to 50 | B (B (Fold Activation <250%)) |  | CN(C)c1cccc(C(=O)Nc2cccc(-c3nc4cccnc4o3)c2)c1 [Compound 111] | 
37 | 5 to 50 | B (B (Fold Activation <250%)) |  | COc1ccc(C(=O)Nc2cc(CN(C)C)cc(-c3nc4ncccc4o3)c2)cc1OC [Compound 156] | 
38 | 5 to 50 | B (B (Fold Activation <250%)) |  | COc1ccc(C(=O)Nc2cccc(-c3nc4cccnc4o3)c2)cc1OC [Compound 112] | 
39 | < 5 | B (B (Fold Activation <250%)) |  | COc1cc(OC)cc(C(=O)Nc2cccc(-c3nc4cccnc4s3)c2)c1 [Compound 215] | 
40 | < 5 |  | B (B (Fold Activation <250%)) | COc1cc(OC)cc(C(=O)Nc2ccccc2-c2nc3cnccc3o2)c1 [Compound 404] | 
41 | < 5 | B (B (Fold Activation <250%)) |  | COc1cc(C)ccc1C(=O)Nc1cccc(-c2nc3ncccc3s2)c1 [Compound 199] | 
42 | < 5 |  | B (B (Fold Activation <250%)) | O=C(Nc1cccc(-c2nc3ccncc3s2)c1)c1ccc(-c2ccccc2)o1 [Compound 241] | 
43 | < 5 | B (B (Fold Activation <250%)) |  | COc1ccc(C(=O)Nc2cccc(-c3cc4cccnc4o3)c2)c(OC)c1 [Compound 191] | 
44 | < 5 |  | B (B (Fold Activation <250%)) | COc1cc(C(=O)Nc2ccccc2-c2nc3cnccc3o2)cc(OC)c1OC [Compound 405] | 
45 | 5 to 50 | B (B (Fold Activation <250%)) |  | CN(C)c1cccc(C(=O)Nc2cccc(-c3nc4ccncc4s3)c2)c1 [Compound 113] | 
46 | < 5 | B (B (Fold Activation <250%)) |  | COc1ccc(C(=O)Nc2cccc(-c3nc4ccccc4[nH]3)c2)c(OC)c1 [Compound 211] | 
47 | < 5 | B (B (Fold Activation <250%)) |  | COc1ccc(C(=O)Nc2cccc(-c3nc4ncccc4[nH]3)c2)c(OC)c1 [Compound 184] | 
48 | 5 to 50 | B (B (Fold Activation <250%)) |  | COc1ccc(C(=O)Nc2cc(C(=O)N3CCNCC3)cc(-c3nc4ncccc4o3)c2)c(OC)c1 [Compound 139] | 
49 | < 5 |  | B (B (Fold Activation <250%)) | Cc1cc(C(=O)Nc2cccc(-c3nc4ccncc4s3)c2)no1 [Compound 304] | 
50 | 5 to 50 |  | B (B (Fold Activation <250%)) | COc1cc(OC)cc(C(=O)Nc2cccc(-c3nc4cnccc4o3)c2)c1 [Compound 297] | 
51 | 5 to 50 |  | A (A (Fold activation >250%)) | COc1cc(C(=O)Nc2cccc(-c3nc4ncccn4c3C)c2)cc(OC)c1OC [Compound 219] | 
